The record followed here is patent US8227489B2, “N-(aminoheteroaryl)-1H-indole-2-carboxamide derivatives, preparation thereof and therapeutic use thereof” (Sanofi-Aventis, priority 2006, dated 2012).

Each structure is given as a SMILES string. Where a name gives a salt, the structure may show the parent alone.

Series [1] addresses T1, TRPV1 receptor (Rattus norvegicus, UniProt O35433).
T1 construct: The neurons of the DRG naturally express the TRPV1 receptor; endogenous in cells; host or cells: primary culture of newborn rat dorsal root ganglion neurons
Put plainly: Inhibition of the current induced by capsaicin with regard to rat DRGs (whole cell patch clamp). The class given is cell-based. The following applies: DRG neuron, capsaicin 1 microM response, rat DRG neurons, read-out: % Inhibition by the DRG patch technique; for inhibition at 0.01 µM: compound at 10 nM; for inhibition at 0.001 µM: compound at 1 nM. The procedure: Test of the Inhibition of the Current Induced by Capsaicin with Regard to Rat DRGs
• Primary culture of rat dorsal root ganglion (DRG) cells:
The neurons of the DRG naturally express the TRPV1 receptor.
Primary cultures of DRGs of newborn rats are prepared from one-day-old rats. Briefly, after dissection, the ganglions are trypsinized and the cells dissociated mechanically by gentle trituration. The cells are resuspended in an Eagle's basal culture medium comprising 10% of fetal calf serum, 25 mM KCl, 2 mM glutamine, 100 μg/ml of gentamicin and 50 ng/ml of NGF and then deposited on glass cover slips covered with laminin (0.25×10^6 cells per cover slip) which are subsequently placed in 12-well Corning dishes. The cells are incubated at 37° C. in a humidified atmosphere comprising 5% of CO2 and 95% of air. Cytosine β-D-arabinoside (1 μM) is added 48 h after culturing, in order to prevent the growth of non-neuronal cells. After culturing for 7-10 days, the cover slips are transferred into experimental chambers for the patch clamp studies.
The measurement chambers (volume 800 μl) comprising the cell preparation are placed on the stage of an inverted microscope (Olympus IMT2) equipped with Hoffman optics (Modulation Contrast, New York) and are observed at a magnification of 400×. The chambers are continuously perfused by gravity (2.5 ml/min) using a distributor of solutions which has 8 inlets, the single outlet of which, composed of a polyethylene tube (opening 500 μm), is placed at least 3 mm from the cell studied. The “whole cell” configuration of the patch clamp technique was used. Borosilicate glass pipettes (resistance 5-10 Mohms) are brought close to the cell using a 3D piezoelectric micromanipulator (Burleigh, PC1000). The overall currents (membrane potential set at −60 mV) are recorded with an Axopatch 1D amplifier (Axon Instruments, Foster City, Calif.) connected to a PC controlled by Pclamp8 software (Axon Instruments). The current plots are recorded on paper and simultaneously recorded digitally (sampling frequency 15 to 25 Hz) and acquired on the hard disk of the PC.
The application of a micromolar capsaicin solution produces an incoming cationic current with regard to the DRG cells (voltage set at […]). In order to minimize the desensitization of the receptors, a minimum interval of one minute between two applications of capsaicin is observed. After a control period (stabilization of the capsaicin alone response), the test compounds are applied alone at a given concentration (concentration of 10 nM or […]) for a period of time of 4 to 5 minutes, during which several capsaicin+compound tests are carried out (obtaining the maximum inhibition). The results are expressed as % of inhibition of the control capsaicin response.
In general terms: Patch clamp records ionic current or voltage across a cell membrane.

Series [2] concerns the target T2, TRPV1 receptors (Mus musculus, UniProt Q704Y3).
T2 construct: from tissue; host or cells: cornea of the living mouse (in vivo)
In words: Mouse corneal irritation test (capsaicin-induced). The class given is in vivo. The following applies: compound 500 μM, 2 μl local application on cornea 10 minutes before 160 μM capsaicin. Here is the method:
Mouse Corneal Irritation Test
The irritating nature of capsaicin is easily assessed on the cornea since this organ is one of the most innervated by C fibers. In this context, according to preliminary experiments, the application of a very small amount of capsaicin (2 μl at a concentration of 160 μM) at the surface of the cornea of an animal results in a number of kinds of stereotyped behavior related to irritation which are easy to record. These include: blinking of the eye, rubbing of the instilled eye by the ipsilateral front paw, rubbing of the face with the two front paws and scratching of the ipsilateral face by the hind paw. […] Its appearance is furthermore also normal. […] It may be concluded therefrom that the duration of action of capsaicin at these doses is less than 2 minutes.
Summary of the Methodology: […]
In practice, the test product, prepared at 25 mM in DMSO and diluted for its final use in physiological saline with 10% Tween 80 to the stronger concentration of 500 μM, is administered in local application at the surface of the cornea under a volume of 2 μl, 10 minutes before the application of the capsaicin. […] During observation for 2 minutes following the instillation, the number of rubbing actions on the instilled eye by the ipsilateral front paw is counted for each animal.
For a given group, the percentage of protection is calculated as follows: […]

T1 sequence (O35433 whole entry): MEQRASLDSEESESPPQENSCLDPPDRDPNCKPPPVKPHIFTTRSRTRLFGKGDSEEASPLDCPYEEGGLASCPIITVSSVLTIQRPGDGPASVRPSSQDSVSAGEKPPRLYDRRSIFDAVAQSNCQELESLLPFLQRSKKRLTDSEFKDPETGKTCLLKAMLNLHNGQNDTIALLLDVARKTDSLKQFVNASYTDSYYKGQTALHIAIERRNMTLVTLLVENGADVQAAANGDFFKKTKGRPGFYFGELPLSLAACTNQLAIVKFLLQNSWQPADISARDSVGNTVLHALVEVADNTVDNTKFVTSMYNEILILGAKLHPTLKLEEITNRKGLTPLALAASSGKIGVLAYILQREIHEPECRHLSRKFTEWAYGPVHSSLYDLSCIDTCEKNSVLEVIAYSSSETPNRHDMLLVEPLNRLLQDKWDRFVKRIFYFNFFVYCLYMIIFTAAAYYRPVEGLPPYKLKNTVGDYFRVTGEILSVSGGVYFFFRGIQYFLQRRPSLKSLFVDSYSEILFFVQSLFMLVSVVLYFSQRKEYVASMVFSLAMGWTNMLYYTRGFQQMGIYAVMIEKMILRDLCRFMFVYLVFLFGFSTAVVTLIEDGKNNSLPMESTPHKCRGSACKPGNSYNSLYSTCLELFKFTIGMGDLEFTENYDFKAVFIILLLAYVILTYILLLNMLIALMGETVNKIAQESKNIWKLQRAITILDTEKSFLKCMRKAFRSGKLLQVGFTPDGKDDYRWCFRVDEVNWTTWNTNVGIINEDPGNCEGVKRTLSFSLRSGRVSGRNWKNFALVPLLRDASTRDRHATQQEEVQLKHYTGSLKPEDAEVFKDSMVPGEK
T2 sequence (Q704Y3 whole entry): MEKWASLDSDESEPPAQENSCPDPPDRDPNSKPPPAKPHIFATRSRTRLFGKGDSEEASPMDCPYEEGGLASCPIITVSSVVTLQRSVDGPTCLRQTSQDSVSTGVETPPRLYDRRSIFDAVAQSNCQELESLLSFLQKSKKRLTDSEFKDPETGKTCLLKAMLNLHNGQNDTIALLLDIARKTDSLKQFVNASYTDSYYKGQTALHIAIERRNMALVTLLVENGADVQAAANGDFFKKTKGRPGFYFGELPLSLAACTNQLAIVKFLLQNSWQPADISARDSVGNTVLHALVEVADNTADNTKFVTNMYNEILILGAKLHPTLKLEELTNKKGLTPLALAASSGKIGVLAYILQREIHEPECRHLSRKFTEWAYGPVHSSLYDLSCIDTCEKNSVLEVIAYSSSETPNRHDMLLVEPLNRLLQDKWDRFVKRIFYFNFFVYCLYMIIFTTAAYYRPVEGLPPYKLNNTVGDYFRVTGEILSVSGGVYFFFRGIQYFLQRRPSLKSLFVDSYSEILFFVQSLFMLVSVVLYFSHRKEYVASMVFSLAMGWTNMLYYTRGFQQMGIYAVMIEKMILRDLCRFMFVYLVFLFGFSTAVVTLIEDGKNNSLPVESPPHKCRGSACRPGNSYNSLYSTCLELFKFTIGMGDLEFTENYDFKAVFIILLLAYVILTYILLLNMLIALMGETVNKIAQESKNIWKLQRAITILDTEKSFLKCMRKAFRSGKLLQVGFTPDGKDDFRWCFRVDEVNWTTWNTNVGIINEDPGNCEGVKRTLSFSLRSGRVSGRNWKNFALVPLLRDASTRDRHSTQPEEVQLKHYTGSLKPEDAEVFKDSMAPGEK

In general, melting point refers to the temperature, or range, at which the solid turns liquid. In turn, `Cc1cc(NC(=O)c2cc3cc(F)ccc3n2Cc2cccc(F)c2)cnc1N(C)C` came in with a melting point of 145 to 146 °C.
Same read-out and setting: to `CC(=O)Nc1ccc(NC(=O)c2cc3ccc(C(F)(F)F)cc3n2Cc2cccc(F)c2)cn1` belongs 293 to 295 °C; to `CN(C)c1ncc(NC(=O)c2cc3cc(F)ccc3n2Cc2cccc(F)c2)cc1C(F)(F)F`, 142 to 143 °C.
Broadly, the inhibition is the share of the control response that was lost under treatment. Molecule `Cc1cc(N(C)C)ncc1NC(=O)c1cc2cc(F)ccc2n1Cc1ccncc1` [Compound 17, N-[6-dimethylamino-4-methylpyridin-3-yl]-5-fluoro-1-(pyridin-4-ylmethyl)-1H-indole-2-carboxamide] returned a melting point of 217 to 219 °C. Moreover, the inhibition at 0.01 µM in series [1] was found to be 60%.
Regarding `CNc1ccc(NC(=O)c2cc3cc(F)ccc3n2Cc2ccncc2)cn1`, the melting point is 220 to 222 °C.
Same read-out and setting: then `CN(C)c1ccc(NC(=O)c2cc3cc(F)ccc3n2Cc2cccc(F)c2)cn1.Cl`, with 232 to 234 °C.
`CN(C)C1=CNN(NC(=O)c2cc3cc(C(F)(F)F)ccc3n2Cc2ccncc2)C=C1.Cl` yielded a melting point of 268 to 272 °C.
Same read-out and setting: then `CC(=O)Nc1ccc(NC(=O)c2cc3cc(F)ccc3n2Cc2cccc(F)c2)cn1`, with 252 to 254 °C; and `CN(C)C1=CNN(NC(=O)c2cc3cc(F)ccc3n2Cc2cccc(F)c2)C=C1` (as salt: hydrochloride), with 239 to 241 °C.
Consider `CN(C)C1=CNN(NC(=O)c2cc3cc(C(F)(F)F)ccc3n2Cc2cccc(F)c2)C=C1`, for which the melting point was 138 to 139 °C.
In the case of `CNc1cc(C)c(NC(=O)c2cc3cc(F)ccc3n2Cc2cccc(F)c2)cn1`, the melting point was in the range of 215 to 217 °C.
As to `CN(C)c1ccc(NC(=O)c2cc3cc(C(F)(F)F)ccc3n2Cc2cccc(F)c2)cn1` [Compound 12, N-[6-(dimethylamino)pyridin-3-yl]-5-trifluoromethyl-1-(3-fluorobenzyl)-1H-indole-2-carboxamide], the inhibition at 0.001 µM in series [1] worked out at 100%.
`CN(C)C1=CNN(NC(=O)c2cc3ccc(C(F)(F)F)cc3n2Cc2cccc(F)c2)C=C1` yielded a melting point of 255 to 267 °C.
The same measure, in the same setting: to `Cc1cc(N(C)C)ncc1NC(=O)c1cc2cc(F)ccc2n1Cc1cccc(F)c1` belongs 183 to 185 °C; to `CNc1cc(C)c(NC(=O)c2cc3cc(F)ccc3n2Cc2ccncc2)cn1`, 218 to 220 °C.
In turn, `CNc1ccc(NC(=O)c2cc3cc(F)ccc3n2Cc2cccc(F)c2)cn1` [Compound 1, N-[6-(methylamino)pyridin-3-yl]-5-fluoro-1-(3-fluorobenzyl)-1H-indole-2-carboxamide] came in with a melting point of 225 to 227 °C. The inhibition at 0.001 µM in series [1] turned out to be 53%. The “% P (percentage of protection)” value in series [2] turned out to be 23%.
Take `Cc1cc(NC(=O)c2cc3cc(F)ccc3n2Cc2ccncc2)cnc1N(C)C` [Compound 19, N-[6-dimethylamino-5-methylpyridin-3-yl]-5-fluoro-1-(pyridin-4-ylmethyl)-1H-indole-2-carboxamide]: the melting point is 164 to 165 °C. Also, the inhibition at 0.01 µM in series [1] was found to be 33%.
Turning to `CNc1ccc(NC(=O)c2cc3cc(F)ccc3n2Cc2cccc(F)c2)c(C)n1`, the melting point lay within 229 to 230 °C.
Still for that read-out and setting: to `CN(C)c1ncc(NC(=O)c2cc3cc(F)ccc3n2Cc2cccc(F)c2)cc1F` belongs 158 to 159 °C.
